In patent US5298494A, “Monosaccharides having anti-proliferation and anti-inflammatory activity, compositions and uses thereof” (Greenwich Pharmaceuticals Incorporated, priority 1993, dated 1994):

Legend:
[1] = system: BUD-8 human skin fibroblasts; assay: Fibroblast assay: proliferation of BUD-8 skin cell fibroblasts; format: cell-based
Procedure: The human skin cell fibroblast line, BUD-8 was obtained prior to each assay from the American Type Culture Collection. This is a fibroblast-like cell line which was originally derived from the normal skin of a person.
BUD-8 cell cultures were expanded for use in 25 cm^2 flasks at 37° C. in an atmosphere of 5% CO2 in air. At approximately 4-5 five day intervals, or when confluence was reached, the cells were passaged. This was accomplished by detaching the cells with a Teflon scraper, washing and reseeding the cells at a lower density into fresh tissue culture flasks.
(§1) The effect of the compound of the present invention on the proliferative capacity of human BUD-8 skin fibroblasts was measured with the use of a ^3 H-thymidine incorporation assay using culture conditions which were similar to those used for a Con-A blastogenesis assay, described previously. Cultured skin cells were detached from the surface of tissue culture flasks mechanically with a Teflon scraper. The cells were washed, resuspended in incubation medium and the viabilities were determined. These cells were then plated in triplicate at a density of 2×10^3 cells/0.1 ml/microtiter well for the proliferation assay and a density of 1×10^4 cells/0.1 ml/microtiter well for the assays to quantitate PGE2 and LTB4. To these cells was added incubation medium containing indomethacin to inhibit prostaglandin production, or nordihydroguaiaretic acid (NDGA) to inhibit leukotriene production (positive controls).
After 3 days of culture, 1 uCi ^3 H-thymidine was added in a 50 ul volume to each culture well of the microtiter plates. Eighteen hours later, each of the BUD-8 cultures was examined morphologically for evidence of compound-induced toxicity such as cell rounding or granularity. The thymidine-pulsed cells were then precipitated and the amount of ^3 H-thymidine incorporated was counted in a liquid scintillation counter.
The concentrations of the compounds of the invention which were used in these assays were:
The incubation medium used for culturing the BUD-8 cells was RPMI-1640 medium containing 10% fetal bovine serum, 100 ug/ml streptomycin, 100 U/ml penicillin, 0.2M Hepes buffer solution, 5×10^-5 M 2-mercaptoethanol and 2 mM glutamine.

[2] = system: PGE2 production by BUD-8 skin cell fibroblasts; assay: PGE2 production by BUD-8 skin cell fibroblasts (radioimmunoassay); format: cell-based, human
Procedure: as §1
(§2) After 18 hours of culture, samples of the BUD-8 skin cell supernatants were collected from one set of microtiter plates and frozen until assayed for PGE2 or for LTB4 content using the radioimmunoassays described below.
A radioinmunoassay (New England Nuclear) was used to quantitate PGE2 levels in BUD-8 skin cell culture supernatants. Briefly, into each polypropylene tube were mixed 0.1 ml anti-PGE2, 0.1 ml ^125 1-PGE2 and 0.1 ml PGE2 standard or PGE2 containing sample. The BUD-8 skin culture supernatants were diluted 1:2 prior to addition to the radioimmunoassay. Tubes were refrigerated overnight. A polyethylene glycol solution (16%, 6,000 m.w.) was then added to precipitate immune complexes and the radioactivity in the precipitate was counted in a gamma counter.

[3] = system: LTB4 production by BUD-8 skin cell fibroblasts; assay: LTB4 production by BUD-8 skin cell fibroblasts (radioimmunoassay); format: cell-based, human
Procedure: as §1, §2
Levels of LTB4 in aliquots of BUD-8 skin cell cultures supernatants were quantitated by radioimmunoassay (New England Nuclear). Briefly, into each polyproplyene tube were mixed 0.1 ml anti-LTB4, 0.1. ml ^3 H-LTB4 and 0.1 ml LTB4 standard or LTB4 containing sample. The BUD-8 skin cell culture supernatants were used directly in the radioimmunoassay. Tubes were refrigerated overnight. A charcoal solution (0.5 ml of 0.5% charcoal Norit A) was added and each tube was centrifuged. The radioactivity in the supernatant was then counted in a liquid scintillation counter.

[4] = system: T lymphocytes (normal mouse spleen cells) stimulated with ConA; assay: Mouse Spleen Cell ConA Blastogenesis Assay; format: cell-based, mouse (C57Bl/6); conditions: control compound, concentration not given
[5] = system: GS-109-V-20 human skin cell fibroblasts; assay: Fibroblast assay: proliferation of GS-109-V-20 skin cell fibroblasts; format: cell-based
Procedure: The effect of methyl 3-O-3'-(N',N'-dimethylamino-n-propyl)-6-deoxy-D-glucopyranoside on the proliferative capacity of human GS-109-V-20 skin fibroblasts was measured with the use of ^3 H-thymidine incorporation assay. Cultured skin cells were detached from the surface of tissue culture flasks mechanically with a Teflon scraper. The cells were washed, resuspended in incubation medium and the viabilities determined. These cells were then plated in triplicate at a density of 1×10^3 cells/0.1 ml/microtiter well. To these cells was added 0.1 ml incubation medium containing the methyl 3-O-3'-(N',N'-dimethylamino-n-propyl)-6-deoxy-D-glucopyranoside compound.
After 3 days of culture, 1#uCi ^3 H-thymidine was added in 50 ul volume to each culture well of the microtiter plates. Eighteen hours later, each of the GS-109-V-20 cultures was examined morphologically for evidence of drug-induced toxicity such as cell rounding or granularity. The ^3 H-thymidine-pulsed cells were then precipitated and the amount of ^3 H-thymidine incorporation was counted on a liquid scintillation counter.
Methyl 3-O-3'-(N',N'-dimethylamino-n-propyl)-6-deoxy-D-glucopyranoside was suspended directly into the medium by extensive sonication, without being filter-sterilized. A range of doses of this compound was used to measure effects of this compound upon GS-109-V-20 cell proliferation. The following doses were used:
The human skin cell fibroblast line, GS-109-V-20, was obtained from the American Type Culture-Collection. […] These cells were selected for use because they are considered to exist in an initiated state, as opposed to being normal or transformed, and have a more extensive population doubling time and survival period in culture than do normal fibroblasts. In this regard, they would more closely reflect the biological characteristics of psoriatic or rheumatoid synovial fibroblasts which also proliferate more extensively than do normal fibroblasts, but not as extensively as immortalized transformed tumor cells.
The number of GS-109-V-20 cells was expanded for use in the described assays by culture in 25 cm^2 flasks at 37° C. in an atmosphere of 5% CO2 in air. At approximately 4-5 day intervals, or when confluence was reached, the cells were passaged. This was accomplished by detaching the cells by trypsinization, washing and reseeding the cells at a lower density into fresh tissue culture flasks.

[6] = concentration not given, 1080 min

## CC1(C)OC2OC3C(O)COC3(O)C2O1 [IV, (3S) 1,2-O-isopropylidene-α-D-ribo-hexos-3-ulose-1,4:3,6-difuranose]
[1]; 1 ug/ml
  ^3 H-Thymidine uptake by BUD-8 skin cells: 3,607 ± 87 cpm
[1]; 10 ug/ml
  ^3 H-Thymidine uptake by BUD-8 skin cells: 4,077 ± 374 cpm
[1]; 25 ug/ml
  ^3 H-Thymidine uptake by BUD-8 skin cells: 3,791 ± 451 cpm
[1]; 100 ug/ml
  ^3 H-Thymidine uptake by BUD-8 skin cells: 4,032 ± 3 cpm
[1]; 300 ug/ml
  ^3 H-Thymidine uptake by BUD-8 skin cells: 2,882 ± 387 cpm
[1]; 750 ug/ml
  ^3 H-Thymidine uptake by BUD-8 skin cells: 2,658 ± 247 cpm
[1]; Homo sapiens, Skin fibroblast, 1 ug/ml, read-out: % Effect on BUD-8 proliferation
  inhibition at 1 µg/mL: 51%
[1]; Homo sapiens, Skin fibroblast, 10 ug/ml, read-out: % Effect on BUD-8 proliferation
  inhibition at 10 µg/mL: 44%
[1]; Homo sapiens, Skin fibroblast, 25 ug/ml, read-out: % Effect on BUD-8 proliferation
  inhibition at 25 µg/mL: 48%
[1]; Homo sapiens, Skin fibroblast, 100 ug/ml, read-out: % Effect on BUD-8 proliferation
  inhibition at 100 µg/mL: 45%
[1]; Homo sapiens, Skin fibroblast, 300 ug/ml, read-out: % Effect on BUD-8 proliferation
  inhibition at 300 µg/mL: 61%
[1]; Homo sapiens, Skin fibroblast, 750 ug/ml, read-out: % Effect on BUD-8 proliferation
  inhibition at 750 µg/mL: 64%
[2]
  effect on PGE2 production in words: significantly decrease of levels of both pro-inflammatory mediators are seen at several non-toxic doses
[2]; 1 ug/ml
  PGE2 in supernatant: 7.1 ± 1.0 pg PGE2 /50 ul supernatant
  calculated PGE2 produced/10^5 BUD-8 cells: 336 pg per 10^5 cells
[2]; 10 ug/ml
  PGE2 in supernatant: 7.5 ± 0.9 pg PGE2 /50 ul supernatant
[2]; 25 ug/ml
  calculated PGE2 produced/10^5 BUD-8 cells: 366 pg per 10^5 cells
[2]; 100 ug/ml
  PGE2 in supernatant: 13.6 ± 4.4 pg PGE2 /50 ul supernatant
  calculated PGE2 produced/10^5 BUD-8 cells: 850 pg per 10^5 cells
[2]; 300 ug/ml
  PGE2 in supernatant: 23.7 ± 1.5 pg PGE2 /50 ul supernatant
  calculated PGE2 produced/10^5 BUD-8 cells: 1654 pg per 10^5 cells
[2]; 750 ug/ml
  PGE2 in supernatant: 4.0 ± 0.5 pg PGE2 /50 ul supernatant
  calculated PGE2 produced/10^5 BUD-8 cells: 82 pg per 10^5 cells
[2]; Homo sapiens, Fibroblast, 18 h, 1 ug/ml, read-out: % Effect on PGE2 production
  inhibition at 1 µg/mL: 51%
[2]; Homo sapiens, Fibroblast, 18 h, 10 ug/ml, read-out: % Effect on PGE2 production
  inhibition at 10 µg/mL: 52%
[2]; Homo sapiens, Fibroblast, 18 h, 25 ug/ml, read-out: % Effect on PGE2 production
  inhibition at 25 µg/mL: 52%
[2]; Homo sapiens, Fibroblast, 18 h, 100 ug/ml, read-out: % Effect on PGE2 production
  inhibition at 100 µg/mL: 59%
[2]; Homo sapiens, Fibroblast, 18 h, 300 ug/ml, read-out: % Effect on PGE2 production
  inhibition at 300 µg/mL: 67%
[2]; Homo sapiens, Fibroblast, 18 h, 750 ug/ml, read-out: % Effect on PGE2 production
  inhibition at 750 µg/mL: 65%
[3]
  effect on LTB4 production in words: significantly decrease of levels of both pro-inflammatory mediators are seen at several non-toxic doses
[3]; 1 ug/ml
  LTB4 in supernatant (Table XXI): 36.4 ± 5.2 pg LTB4 100 ul supernatant
  calculated LTB4 produced/10^5 BUD-8 cells: 1,621 pg per 10^5 cells
[3]; 10 ug/ml
  LTB4 in supernatant (Table XXI): 19.9 ± 3.8 pg LTB4 100 ul supernatant
[3]; 25 ug/ml
  LTB4 in supernatant (Table XXI): 17.7 ± 3.8 pg LTB4 100 ul supernatant
  calculated LTB4 produced/10^5 BUD-8 cells: 683 pg per 10^5 cells
[3]; 100 ug/ml
  LTB4 in supernatant (Table XXI): 17.3 ± 0.9 pg LTB4 100 ul supernatant
  calculated LTB4 produced/10^5 BUD-8 cells: 665 pg per 10^5 cells
[3]; 300 ug/ml
  LTB4 in supernatant (Table XXI): 25.7 ± 5.0 pg LTB4 100 ul supernatant
  calculated LTB4 produced/10^5 BUD-8 cells: 1,083 pg per 10^5 cells
[3]; 750 ug/ml
  LTB4 in supernatant (Table XXI): 23.5 ± 0.2 pg LTB4 100 ul supernatant
  calculated LTB4 produced/10^5 BUD-8 cells: 973 pg per 10^5 cells
[3]; Homo sapiens, Fibroblast, 18 h, 1 ug/ml, read-out: % Effect on LTB4 production
  inhibition at 1 µg/mL: -2%
[3]; Homo sapiens, Fibroblast, 18 h, 10 ug/ml, read-out: % Effect on LTB4 production
  inhibition at 10 µg/mL: 45%
[3]; Homo sapiens, Fibroblast, 18 h, 25 ug/ml, read-out: % Effect on LTB4 production
  inhibition at 25 µg/mL: 51%
[3]; Homo sapiens, Fibroblast, 18 h, 100 ug/ml, read-out: % Effect on LTB4 production
  inhibition at 100 µg/mL: 52%
[3]; Homo sapiens, Fibroblast, 18 h, 300 ug/ml, read-out: % Effect on LTB4 production
  inhibition at 300 µg/mL: 28%
[3]; Homo sapiens, Fibroblast, 18 h, 750 ug/ml, read-out: % Effect on LTB4 production
  inhibition at 750 µg/mL: 35%

## COc1ccc2c(c1)c(CC(=O)O)c(C)n2C(=O)c1ccc(Cl)cc1 [Indo., indomethacin, reference compound]
[4]; ConA 1 ug/ml
  % effect on ConA blastogenic response (positive control): +4%
  Blastogenic response of normal spleen cells to Con-A (positive control): 57.7 ± 8.7 × 10^-3 cpm
[4]; ConA 4 ug/ml
  % effect on ConA blastogenic response (positive control): -17%
  Blastogenic response of normal spleen cells to Con-A (positive control): 70.0 ± 5.6 × 10^-3 cpm
[1]; concentration not given
  % effect on BUD-8 proliferation (positive control): -17%
  ^3 H-Thymidine uptake by BUD-8 skin cells (positive control): 6,043 ± 184 cpm
[5]; 2 × 10^-6 M Indomethacin, 2 × 10^-6 N NDGA
  ^3 H-Thymidine uptake by GS-109-V-20 skin cells (control compound): 3,317 ± 351 cpm
[5]; Homo sapiens, Fibroblast, read-out: % effect on GS-109-V-20 proliferation (control compound)
  inhibition at 2 µM: 14%
[2]; concentration not given
  PGE2 in supernatant (positive control): 5.3 ± 0.5 pg PGE2 /50 ul supernatant
  calculated PGE2 production/10^5 BUD-8 cells (positive control): 187 pg per 10^5 cells
[2]; [6]
  % effect on PGE2 production (positive control): -66%
[3]; concentration not given
  LTB4 in supernatant (positive control): 39.4 ± 5.3 pg LTB4 100 ul supernatant
  calculated LTB4 production/10^5 BUD-8 cells (positive control): 1,771 pg per 10^5 cells
[3]; [6]
  % effect on LTB4 production (positive control): +10%
